According to the supplement of paper PMC5303821, “Major sulfonate transporter Soa1 in Saccharomyces cerevisiae and considerable substrate diversity in its fungal family” (Nature Communications, 2017):

What was measured:
[1] = test system: Ogataea parapolymorpha_XP_013936897; assay: maximal culture density with compound as sole sulfur source (OD600); higher = better growth; conditions: S. cerevisiae S288C/BY sul1Δ sul2Δ soa1Δ with transporter ortholog inserted at SOA1 locus, sulfur-free B medium, 4% glucose, pH 6.5, sole sulfur source
[2] = test system: Metarhizium robertsii_XP_007823832; assay: as above; conditions: S. cerevisiae S288C/BY sul1Δ sul2Δ soa1Δ with transporter ortholog inserted at SOA1 locus, sulfur-free B medium, 4% glucose, pH 6.5, sole sulfur source
[3] = test system: Aspergillus nidulans_XP_681611; assay: as above; conditions: S. cerevisiae S288C/BY sul1Δ sul2Δ soa1Δ with transporter ortholog inserted at SOA1 locus, sulfur-free B medium, 4% glucose, pH 6.5, sole sulfur source
[4] = test system: Aspergillus nidulans_CBF74694; assay: as above; conditions: S. cerevisiae S288C/BY sul1Δ sul2Δ soa1Δ with transporter ortholog inserted at SOA1 locus, sulfur-free B medium, 4% glucose, pH 6.5, sole sulfur source
[5] = test system: Saccharomyces uvarum_SOA1; assay: as above; conditions: S. cerevisiae S288C/BY sul1Δ sul2Δ soa1Δ with transporter ortholog inserted at SOA1 locus, sulfur-free B medium, 4% glucose, pH 6.5, sole sulfur source
[6] = test system: Ogataea parapolymorpha_XP_013935289; assay: as above; conditions: S. cerevisiae S288C/BY sul1Δ sul2Δ soa1Δ with transporter ortholog inserted at SOA1 locus, sulfur-free B medium, 4% glucose, pH 6.5, sole sulfur source
[7] = test system: Aspergillus nidulans_XP_660563; assay: as above; conditions: S. cerevisiae S288C/BY sul1Δ sul2Δ soa1Δ with transporter ortholog inserted at SOA1 locus, sulfur-free B medium, 4% glucose, pH 6.5, sole sulfur source
[8] = test system: Ogataea parapolymorpha_XP_013932458; assay: as above; conditions: S. cerevisiae S288C/BY sul1Δ sul2Δ soa1Δ with transporter ortholog inserted at SOA1 locus, sulfur-free B medium, 4% glucose, pH 6.5, sole sulfur source
[9] = test system: Saccharomyces cerevisiae_SOA1; assay: lag phase before growth; higher = slower start of growth; conditions: S. cerevisiae S288C/BY sul1Δ sul2Δ soa1Δ with transporter ortholog inserted at SOA1 locus, sulfur-free B medium, 4% glucose, pH 6.5, sole sulfur source
Method: (§1)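 S. cerevisiae sul1Δ sul2Δ soa1Δ strains expressing 20 fungal SOA1 orthologs (or no transporter, 'soa1 del') were grown in liquid sulfur-free B medium, 4% glucose, pH 6.5 (7 mM K2HPO4). The strains were sulfur-starved for 3 days beforehand. Each sulfur compound was the sole sulfur source at 200 µM (sulfate also at 40 mM). OD600 curves of duplicate cultures were averaged and fitted (logistic / Richards, GroFit) to give maximal growth rate, maximal density and lag phase; temperature not stated.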

[10] = test system: Metarhizium robertsii_XP_007823832; assay: as above; conditions: S. cerevisiae S288C/BY sul1Δ sul2Δ soa1Δ with transporter ortholog inserted at SOA1 locus, sulfur-free B medium, 4% glucose, pH 6.5, sole sulfur source
Method: as §1

[11] = test system: Saccharomyces eubayanus_SOA1; assay: as above; conditions: S. cerevisiae S288C/BY sul1Δ sul2Δ soa1Δ with transporter ortholog inserted at SOA1 locus, sulfur-free B medium, 4% glucose, pH 6.5, sole sulfur source
Method: as §1

[12] = test system: Aspergillus nidulans_XP_661733; assay: as above; conditions: S. cerevisiae S288C/BY sul1Δ sul2Δ soa1Δ with transporter ortholog inserted at SOA1 locus, sulfur-free B medium, 4% glucose, pH 6.5, sole sulfur source
Method: as §1

[13] = test system: Saccharomyces uvarum_SOA1; assay: as above; conditions: S. cerevisiae S288C/BY sul1Δ sul2Δ soa1Δ with transporter ortholog inserted at SOA1 locus, sulfur-free B medium, 4% glucose, pH 6.5, sole sulfur source
Method: as §1

[14] = test system: Ogataea parapolymorpha_XP_013935289; assay: as above; conditions: S. cerevisiae S288C/BY sul1Δ sul2Δ soa1Δ with transporter ortholog inserted at SOA1 locus, sulfur-free B medium, 4% glucose, pH 6.5, sole sulfur source
Method: as §1

[15] = test system: Aspergillus nidulans (IAM 2006)_astA; assay: as above; conditions: S. cerevisiae S288C/BY sul1Δ sul2Δ soa1Δ with transporter ortholog inserted at SOA1 locus, sulfur-free B medium, 4% glucose, pH 6.5, sole sulfur source
Method: as §1

[16] = test system: Saccharomyces uvarum_SOA2; assay: as above; conditions: sulfur source concentration 200 µM; S. cerevisiae S288C/BY sul1Δ sul2Δ soa1Δ with transporter ortholog inserted at SOA1 locus; sulfur-free B medium, 4% glucose, pH 6.5, sole sulfur source
Method: as §1

[17] = test system: Saccharomyces eubayanus_SOA2; assay: as above; conditions: sulfur source concentration 200 µM; S. cerevisiae S288C/BY sul1Δ sul2Δ soa1Δ with transporter ortholog inserted at SOA1 locus; sulfur-free B medium, 4% glucose, pH 6.5, sole sulfur source
Method: as §1

[18] = test system: Metarhizium robertsii_XP_007822519; assay: as above; conditions: sulfur source concentration 200 µM; S. cerevisiae S288C/BY sul1Δ sul2Δ soa1Δ with transporter ortholog inserted at SOA1 locus; sulfur-free B medium, 4% glucose, pH 6.5, sole sulfur source
Method: as §1

[19] = test system: Fusarium oxysporum_ENH65823; assay: as above; conditions: sulfur source concentration 200 µM; S. cerevisiae S288C/BY sul1Δ sul2Δ soa1Δ with transporter ortholog inserted at SOA1 locus; sulfur-free B medium, 4% glucose, pH 6.5, sole sulfur source
Method: as §1

[20] = test system: Aspergillus nidulans_XP_661711; assay: as above; conditions: sulfur source concentration 200 µM; S. cerevisiae S288C/BY sul1Δ sul2Δ soa1Δ with transporter ortholog inserted at SOA1 locus; sulfur-free B medium, 4% glucose, pH 6.5, sole sulfur source
Method: as §1

[21] = test system: Ogataea parapolymorpha_XP_013936897; assay: as above; conditions: sulfur source concentration 200 µM; S. cerevisiae S288C/BY sul1Δ sul2Δ soa1Δ with transporter ortholog inserted at SOA1 locus; sulfur-free B medium, 4% glucose, pH 6.5, sole sulfur source
Method: as §1

[22] = test system: Metarhizium robertsii_XP_007821441; assay: as above; conditions: sulfur source concentration 200 µM; S. cerevisiae S288C/BY sul1Δ sul2Δ soa1Δ with transporter ortholog inserted at SOA1 locus; sulfur-free B medium, 4% glucose, pH 6.5, sole sulfur source
Method: as §1

[23] = test system: Aspergillus nidulans_XP_681611; assay: as above; conditions: sulfur source concentration 200 µM; S. cerevisiae S288C/BY sul1Δ sul2Δ soa1Δ with transporter ortholog inserted at SOA1 locus; sulfur-free B medium, 4% glucose, pH 6.5, sole sulfur source
Method: as §1

[24] = test system: Aspergillus nidulans_CBF80346; assay: as above; conditions: sulfur source concentration 200 µM; S. cerevisiae S288C/BY sul1Δ sul2Δ soa1Δ with transporter ortholog inserted at SOA1 locus; sulfur-free B medium, 4% glucose, pH 6.5, sole sulfur source
Method: as §1

[25] = test system: Aspergillus nidulans_CBF74694; assay: as above; conditions: sulfur source concentration 200 µM; S. cerevisiae S288C/BY sul1Δ sul2Δ soa1Δ with transporter ortholog inserted at SOA1 locus; sulfur-free B medium, 4% glucose, pH 6.5, sole sulfur source
Method: as §1

[26] = test system: Aspergillus nidulans_XP_660670; assay: as above; conditions: sulfur source concentration 200 µM; S. cerevisiae S288C/BY sul1Δ sul2Δ soa1Δ with transporter ortholog inserted at SOA1 locus; sulfur-free B medium, 4% glucose, pH 6.5, sole sulfur source
Method: as §1

[27] = test system: Aspergillus nidulans_XP_660563; assay: as above; conditions: sulfur source concentration 200 µM; S. cerevisiae S288C/BY sul1Δ sul2Δ soa1Δ with transporter ortholog inserted at SOA1 locus; sulfur-free B medium, 4% glucose, pH 6.5, sole sulfur source
Method: as §1

[28] = test system: Ogataea parapolymorpha_XP_013932458; assay: as above; conditions: sulfur source concentration 200 µM; S. cerevisiae S288C/BY sul1Δ sul2Δ soa1Δ with transporter ortholog inserted at SOA1 locus; sulfur-free B medium, 4% glucose, pH 6.5, sole sulfur source
Method: as §1

soa1 del = assay: as above; conditions: sulfur source concentration 200 µM; S. cerevisiae S288C/BY sul1Δ sul2Δ soa1Δ with transporter ortholog inserted at SOA1 locus; sulfur-free B medium, 4% glucose, pH 6.5, sole sulfur source
Method: as §1

[29] = sulfur source concentration 200 µM
[30] = sulfur source concentration 40000 µM

Row | SMILES | maximal culture density [1, 29] | maximal culture density [2, 29] | maximal culture density [3, 29] | maximal culture density [4, 29] | maximal culture density [5, 29] | maximal culture density [6, 29] | maximal culture density [7, 29] | maximal culture density [8, 29] | lag phase before growth [10, 29] | lag phase before growth [14, 29] | lag phase before growth [15, 29] | lag phase before growth [9, 29] | lag phase before growth [11, 29] | lag phase before growth [16] | lag phase before growth [13, 29] | lag phase before growth [17] | lag phase before growth [18] | also measured
1 | O=S(=O)(O)O [sulfate] | 0.294 | 1.57 | 0.294 | 0.184 | 0.265 | 1.58 | 0.31 | 0.281 | 8.36 h | 25.8 h | 6.92 h | – | – | – | – | – | – | maximal culture density [1, 30]: 0.301; maximal culture density [2, 30]: 1.63; maximal culture density [3, 30]: 0.301; maximal culture density [4, 30]: 0.208; maximal culture density [5, 30]: 1.65; maximal culture density [6, 30]: 1.65; maximal culture density [7, 30]: 0.315; maximal culture density [8, 30]: 0.343; lag phase before growth [9, 30]: 13.8 h; lag phase before growth [10, 30]: 11.7 h; lag phase before growth [11, 30]: 16.8 h; lag phase before growth [12, 30]: 39.2 h; lag phase before growth [13, 30]: 10.7 h; lag phase before growth [14, 30]: 7.95 h; lag phase before growth [15, 30]: 7.29 h
2 | CCCCS(=O)(=O)O [Butanesulfonate] | 0.323 | 0.604 | 0.368 | 0.2 | 1.59 | 1.6 | 0.355 | 0.274 | – | 6.98 h | – | 9.34 h | 9.71 h | 12.7 h | 8.4 h | 10.1 h | – | –
3 | O=S(O)O [sulfite] | 0.284 | 1.56 | 0.308 | 0.196 | 1.61 | 1.61 | 0.322 | 0.285 | 8.25 h | 5.63 h | 6.93 h | 6.67 h | 6.97 h | 11 h | 5.95 h | – | 0.981 h | –
4 | N[C@@H](CS(=O)(=O)O)C(=O)O [L-cysteic acid] | 0.391 | 1.43 | 0.861 | 0.451 | 1.25 | 1.51 | 0.535 | 0.331 | 7.57 h | 10.9 h | – | 12.6 h | – | – | 6.98 h | – | 17.9 h | lag phase before growth [19]: 7.6 h; lag phase before growth [12, 29]: 17.2 h; lag phase before growth [20]: 5.14 h
5 | CCS(=O)(=O)O [Ethanesulfonate] | 0.296 | 0.494 | 0.319 | 0.182 | 1.59 | 1.58 | 0.314 | 0.237 | – | 8.69 h | – | 10.3 h | 9.96 h | 15.6 h | 9.26 h | 13.1 h | 7.36 h | –
6 | CCCS(=O)(=O)O [Propanesulfonate] | 0.296 | 0.507 | 0.35 | 0.192 | 1.56 | 1.59 | 0.327 | 0.243 | – | 10.8 h | – | 15.7 h | 11.9 h | 19 h | 11.1 h | 14 h | 21.1 h | –
7 | CSCC[C@H](N)C(=O)O [Methionine] | 1.57 | 1.58 | 1.64 | 1.57 | 1.57 | 1.55 | 1.6 | 1.56 | 4.38 h | 4.02 h | 5.14 h | 5.45 h | 3.83 h | 4.3 h | 3.45 h | 4.47 h | 4.74 h | lag phase before growth [21]: 2.97 h; lag phase before growth [22]: 4.5 h; lag phase before growth [23]: 3.6 h; lag phase before growth [19]: 5.35 h; lag phase before growth [24]: 5.16 h; lag phase before growth [25]: 5.36 h; lag phase before growth [12, 29]: 4.49 h; lag phase before growth [26]: 4.47 h; lag phase before growth [20]: 4.47 h; lag phase before growth [27]: 3.48 h; lag phase before growth [28]: 3.88 h; lag phase before growth (soa1 del): 4.14 h
8 | O=S(=O)(O)CO [Hydroxymethane sulfonate] | 0.303 | 1.5 | 0.322 | 0.203 | 1.6 | 1.62 | 0.318 | 0.234 | 4.31 h | 6.08 h | 0.457 h | 6.75 h | 7.32 h | 11.1 h | 6.88 h | 23.8 h | 7.86 h | –
